# Measured values taken from paper PMC7060200, “Selective Binding of HSC70 and its Co-Chaperones to Structural Hotspots on CFTR” (Scientific Reports, 2020).
# Entries after “also recorded” stand apart in the source; their conditions may differ. Ends that are not written are not given here. Peptide text beside a SMILES is read from it.
# Tests used:
# [1] = target: T1, DJA2 (Homo sapiens, UniProt O60884); assay: ELISA binding of DJA2 to immobilized biotinylated CFTR peptides; settings: for binding in peptide library screen, DJA2 (in words): 2 μM DJA2, absence of ATP, immobilized 15-mer, n ≥ 3
# T1 construct: made in house
# Description: (§1) HSC70, DJA1 and DJA2 were purified as His-tagged proteins, as described. HSC70 was also amplified by PCR with an N-terminal FLAG tag, inserted into pPROEXHTa (Invitrogen) and purified as described. HSC70 was stored in 100 mM KOAc, 20 mM HEPES-KOH pH 7.5, 5 mM MgOAC2 (buffer G), DJA1 and DJA2 in 500 mM NaCl, 20 mM HEPES-KOH pH 7.5, 5 mM MgOAC2 (buffer H). Avi-tagged CFTR NBD1 was purified as described.
# (§2) The CFTR peptide library was designed as 15-mers with 10-residue overlaps covering the cytosolic sequences as in Fig. 1a and Supplemental Table S1. Synthetic peptides (Mimotopes, PepSet purity) contained an N-terminal biotin followed by linker sequence GSGS and the 15-mer sequence. […] Peptides were reconstituted in DMSO or water.
# (§3) For peptide binding, streptavidin-coated black 96-well plates (Nunc Maxisorp, ThermoFisher) were pre-rinsed with PBS containing 0.05% Tween-20 (PBST), and 5 µM biotinylated peptides in 100 µl PBS were bound overnnight at 4 °C with agitation. Plates were washed with PBST and blocked with PBST containing 0.5% bovine serum albumin (BSA) for 1 h. After removal of blocking solution, 100 µl reactions containing chaperones at indicated concentrations were bound for 45 min at room temperature with agitation. HSC70 reactions were in buffer G containing 1 mM ATP, DJA1 and DJA2 reactions were in buffer H. For competition assays, chaperones and peptides were mixed at indicated concentrations immediately before the reactions were added to the plates. For detections, the plates were washed in PBST and 5 μM His-Probe-HRP conjugate (ThermoFisher) in 100 μL PBST added for 15 min with agitation. After washing in PBST, plates were developed using Amplex Red (ThermoFisher) according to manufacturer’s instructions, in a fluorescence plate reader (Tecan M1000).
# (§4) Affinities were determined separately from binding curves and from competition curves. Data from binding of chaperones to immobilized peptides (Fig. 2a,b and Supplemental Fig. S2a–c) were fit to the equation 1/(1 − i) = (C/i)/Kd^B − b, where i is the relative saturation, C is the chaperone concentration (1 μM), Kd^B is the apparent dissociation constant from the binding data. In the plot of 1/(1 − i) against (C/i), the slope is 1/Kd^B, and −b is the intercept. […] In the plot of bi + (C/Kd^B)/i over D, the slope is 1/Kd^C, and e is the intercept. The amount of chaperone bound in the absence of competitor was set as i = 1.
# (§5) Established statistical methods[71]–[73] were used to analyze the data for chaperone binding to the peptide library. First, biological and statistical outliers were identified with the Tukey method in two rounds, for biological and then statistical outliers. […] Binding data were represented as multiples of the standard deviations from the normal means. Binding in the presence of competitor peptides were shown as a fraction of binding in the absence of competitor, or the fraction competed calculated as 1 – fraction bound. Values were compared using a two-tailed unpaired Student’s t-test assuming unequal variance.
# [2] = target: T2, HSC70 (Homo sapiens, UniProt P11142); assay: Competition ELISA: soluble peptide vs HSC70 binding to immobilized 1097-L; settings: for competition of HSC70 binding to immobilized 1097-L (in words): 1 μM HSC70, soluble peptide up to 100 μM; for HSC70 binding site by competition screen (in words): 1 μM HSC70, 100 μM soluble peptide, Fig. 3c/5, cutoff twice SD of 733-L, n ≥ 4
# T2 construct: made in house
# Description: as §1, §2, §3, §4, §5
# [3] = target: T1, DJA2; assay: Competition ELISA: soluble peptide vs DJA2 binding to immobilized 1097-L; settings: for competition of DJA2 binding to immobilized 1097-L (in words): 1 μM DJA2, soluble peptide up to 100 μM; for DJA2 binding site by competition screen (in words): 1 μM DJA2, 100 μM soluble peptide, Fig. 3c/5, cutoff twice SD of 733-L, n ≥ 4
# Description: as §1, §2, §3, §4, §5
# [4] = target: T3, DJA1 (Homo sapiens, UniProt P31689); assay: ELISA binding of DJA1 to immobilized biotinylated CFTR peptides; settings: for binding in peptide library screen, DJA1 (in words): 2 μM DJA1, absence of ATP, immobilized 15-mer, n ≥ 3
# T3 construct: made in house
# Description: as §1, §2, §3, §4, §5
# [5] = target: T3, DJA1; assay: Competition ELISA: soluble peptide vs DJA1 binding to immobilized 1097-L; settings: for competition of DJA1 binding to immobilized 1097-L (in words): 1 μM DJA1, soluble peptide up to 100 μM; for DJA1 binding site by competition screen (in words): 1 μM DJA1, 100 μM soluble peptide, Fig. 3c/5, cutoff twice SD of 733-L, n ≥ 4
# Description: as §1, §2, §3, §4, §5
# [6] = target: T2, HSC70; assay: ELISA binding of HSC70 to immobilized biotinylated CFTR peptides; settings: for binding in peptide library screen, HSC70 (in words): 2 μM HSC70, with ATP, immobilized 15-mer, n ≥ 3; for HSC70 concentration at which binding reached saturation: titration on immobilized peptide
# Description: as §1, §2, §3, §4, §5
# [7] = tested on: HSC70 and DJA2; assay: Refolding of guanidine denatured luciferase by HSC70 and DJA2; format: biochemical; settings: 4 μM each HSC70 and DJA2, 100 nM luciferase, 100 μM peptide (25-fold excess), 60 min, % of control without peptide; n = 3
# Description: Refolding of guanidine denatured luciferase with HSC70 and DJA2 was as described. […] To monitor refolding, luciferase activity was measured in a luminometer (Berthold Sirius) with the luciferase assay kit (Promega). For co-IPs, 20 μL reaction aliquots were stopped by dilution at 4 °C to 500 μL with buffer containing 0.1% Triton X-100, 0.2% BSA and 0.04 mg/mL apyrase (Sigma). Reactions were incubated with FLAG-M2 magnetic beads (Sigma) for 1 h at 4 °C with agitation, then beads were isolated and washed with buffer G containing 0.1% Triton X-100, and eluted with 40 μL of 1 μg/mL FLAG peptide in the same buffer. Samples were analyzed on Western blots detected with antibodies against luciferase (Sigma, L2164) and the FLAG-M2 tag (Sigma, F1804).
# [8] = read-out: Kd from competition curves, DJA2
# T2 sequence (P11142 whole entry): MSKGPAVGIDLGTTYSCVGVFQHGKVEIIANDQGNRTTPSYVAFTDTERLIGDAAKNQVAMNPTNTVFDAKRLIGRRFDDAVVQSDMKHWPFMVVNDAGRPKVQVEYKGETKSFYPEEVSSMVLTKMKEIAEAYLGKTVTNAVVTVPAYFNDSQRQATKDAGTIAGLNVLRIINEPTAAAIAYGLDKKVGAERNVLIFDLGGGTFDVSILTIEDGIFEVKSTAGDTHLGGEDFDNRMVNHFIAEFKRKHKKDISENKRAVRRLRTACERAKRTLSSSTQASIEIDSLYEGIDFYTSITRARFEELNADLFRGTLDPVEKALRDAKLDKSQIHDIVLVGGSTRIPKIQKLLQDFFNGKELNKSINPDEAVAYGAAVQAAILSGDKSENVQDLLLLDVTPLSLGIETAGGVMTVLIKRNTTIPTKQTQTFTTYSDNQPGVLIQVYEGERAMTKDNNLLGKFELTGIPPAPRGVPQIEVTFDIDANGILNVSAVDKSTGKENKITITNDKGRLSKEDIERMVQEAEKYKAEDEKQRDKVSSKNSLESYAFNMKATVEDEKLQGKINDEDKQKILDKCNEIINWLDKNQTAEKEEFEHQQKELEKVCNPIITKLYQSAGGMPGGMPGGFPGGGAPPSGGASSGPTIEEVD
# T1 sequence (O60884 whole entry): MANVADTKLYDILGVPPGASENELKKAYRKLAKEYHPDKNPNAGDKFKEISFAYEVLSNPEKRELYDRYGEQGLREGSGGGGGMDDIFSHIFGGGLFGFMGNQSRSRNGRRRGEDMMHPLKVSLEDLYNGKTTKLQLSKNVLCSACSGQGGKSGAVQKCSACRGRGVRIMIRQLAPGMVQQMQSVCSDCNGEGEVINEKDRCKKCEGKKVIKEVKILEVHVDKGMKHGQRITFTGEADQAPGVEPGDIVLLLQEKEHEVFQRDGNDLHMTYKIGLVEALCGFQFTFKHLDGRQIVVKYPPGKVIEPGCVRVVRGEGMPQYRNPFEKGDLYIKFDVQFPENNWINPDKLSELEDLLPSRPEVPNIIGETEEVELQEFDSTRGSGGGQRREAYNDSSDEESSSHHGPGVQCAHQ
molecule,measurement,setting,value
"488-L: NBD1 15-mer 481-495 (KIKHSGRISFCSQFS; UniProt P13569 481-495, looked up, fragment) [Peptide 488-L]","binding in peptide library screen, DJA2 (in words)",[1],"binding by DJA1, HSC70 and DJA2, in the original screen"
same,competition of HSC70 binding to immobilized 1097-L (in words),[2],competed poorly
same,competition of DJA2 binding to immobilized 1097-L (in words),[3],competed poorly
same,"binding in peptide library screen, DJA1 (in words)",[4],"binding by DJA1, HSC70 and DJA2, in the original screen"
same,competition of DJA1 binding to immobilized 1097-L (in words),[5],competed poorly
same,"binding in peptide library screen, HSC70 (in words)",[6],"binding by DJA1, HSC70 and DJA2, in the original screen"
"493-L: NBD1 15-mer 486-500 (GRISFCSQFSWIMPG; UniProt P13569 486-500, looked up, fragment) [Peptide 493-L]","binding in peptide library screen, DJA2 (in words)",[1],"binding by DJA1, HSC70 and DJA2, in the original screen"
same,competition of HSC70 binding to immobilized 1097-L (in words),[2],competed poorly
same,competition of DJA2 binding to immobilized 1097-L (in words),[3],competed poorly
same,"binding in peptide library screen, DJA1 (in words)",[4],"binding by DJA1, HSC70 and DJA2, in the original screen"
same,competition of DJA1 binding to immobilized 1097-L (in words),[5],competed poorly
same,"binding in peptide library screen, HSC70 (in words)",[6],"binding by DJA1, HSC70 and DJA2, in the original screen"
CC[C@H](C)[C@H](NC(=O)[C@@H](NC(=O)[C@@H](NC(=O)[C@H](CS)NC(=O)[C@H](CC(=O)O)NC(=O)[C@H](C)NC(=O)[C@H](Cc1ccccc1)NC(=O)[C@H](C)NC(=O)[C@H](CCC(N)=O)NC(=O)[C@H](CCCCN)NC(=O)[C@H](CC(C)C)NC(=O)[C@@H](NC(=O)[C@@H](N)CCCNC(=N)N)[C@@H](C)O)[C@@H](C)O)C(C)C)C(=O)N[C@@H](CC(C)C)C(=O)N[C@@H](CS)C(=O)O [Peptide 1393-L] (H-RTLKQAFADCTVILC-OH),competition of HSC70 binding to immobilized 1097-L (in words),[2],competed all of the chaperones well
same,competition of DJA2 binding to immobilized 1097-L (in words),[3],competed all of the chaperones well
same,Kd,[3]; [8],1490 nM
same,competition of DJA1 binding to immobilized 1097-L (in words),[5],competed all of the chaperones well
CC[C@H](C)[C@H](NC(=O)[C@H](CCCNC(=N)N)NC(=O)[C@H](Cc1c[nH]cn1)NC(=O)[C@H](CCC(=O)O)NC(=O)[C@H](CS)NC(=O)[C@H](CC(C)C)NC(=O)[C@@H](NC(=O)[C@@H](NC(=O)[C@@H](N)[C@@H](C)O)C(C)C)[C@@H](C)CC)C(=O)N[C@@H](CCC(=O)O)C(=O)N[C@@H](C)C(=O)N[C@@H](CCSC)C(=O)N[C@@H](CC(C)C)C(=O)N[C@@H](CCC(=O)O)C(=O)N[C@@H](CS)C(=O)O [Peptide 1403-L] (H-TVILCEHRIEAMLEC-OH),competition of HSC70 binding to immobilized 1097-L (in words),[2],competed all of the chaperones well
same,Kd,[3],995 nM
same,competition of DJA2 binding to immobilized 1097-L (in words),[3],competed all of the chaperones well
same,competition of DJA1 binding to immobilized 1097-L (in words),[5],competed all of the chaperones well
"DLYLLDSPF [Peptide 571-S, NBD1 9-mer]",HSC70 binding site by competition screen (in words),[2],bound only by DJA2
same,DJA2 binding site by competition screen (in words),[3],bound only by DJA2
same,DJA1 binding site by competition screen (in words),[5],bound only by DJA2
"EIFESCVCK [Peptide 589-S, NBD1 9-mer]",DJA2 binding site by competition screen (in words),[3],DJA2 site
FGVIPQKVFIFSGTF [Peptide 1293-L],competition of HSC70 binding to immobilized 1097-L (in words),[2],"Strong, essentially saturating competition; also recorded: only competed HSC70"
same,competition of DJA2 binding to immobilized 1097-L (in words),[3],only competed HSC70
same,competition of DJA1 binding to immobilized 1097-L (in words),[5],only competed HSC70
same,HSC70 concentration at which binding reached saturation,"[6]; Fig. 2a, n ≥ 6",around 1 μM
FLYLSTLRWFQMRIE [Peptide 1097-L],"binding in peptide library screen, DJA2 (in words)",[1],most consistently bound by all three chaperones
same,"titration binding / saturation, DJA2 (in words)","[1]; DJA2 titrated to 1.5 μM on immobilized peptide, Fig. 2b, S2c, n = 3",at or close to saturation above 1 μM; also recorded: higher than to the other peptides
same,Kd,"[1]; immobilized peptide (biotin-GSGS-15-mer), DJA2 titrated in buffer H pH 7.5, no nucleotide, 45 min, room temperature, n = 3, read-out: Kd from binding curves, DJA2",75 nM
same,competition of HSC70 binding to immobilized 1097-L (in words),[2],"Strong, essentially saturating competition"
same,Kd,"[2]; read-out: Kd from competition curves, HSC70",602 nM
same,competition of DJA2 binding to immobilized 1097-L (in words),[3],similarly competed
same,Kd,[3]; [8],585 nM
same,"binding in peptide library screen, DJA1 (in words)",[4],most consistently bound by all three chaperones
same,"titration binding / saturation, DJA1 (in words)","[4]; DJA1 titrated to 1.5 μM on immobilized peptide, Fig. 2b, S2b, n = 3",at or close to saturation above 1 μM; also recorded: higher than to the other peptides
same,Kd,"[4]; immobilized peptide (biotin-GSGS-15-mer), DJA1 titrated in buffer H pH 7.5, no nucleotide, 45 min, room temperature, n = 3, read-out: Kd from binding curves, DJA1",167 nM
same,competition of DJA1 binding to immobilized 1097-L (in words),[5],similarly competed
same,Kd,"[5]; read-out: Kd from competition curves, DJA1",2430 nM
same,HSC70 binding in ATP compared with ADP or no nucleotide,"[6]; 1 μM HSC70, immobilized 1097-L, Fig. S1a, n ≥ 4",somewhat lower than in ADP or the absence of nucleotide
same,"binding in peptide library screen, HSC70 (in words)",[6],most consistently bound by all three chaperones
same,"titration binding / saturation, HSC70 (in words)","[6]; HSC70 titrated to 1.5 μM on immobilized peptide, Fig. 2a, S2a, n ≥ 6",higher than to the other peptides
same,Kd,"[6]; immobilized peptide (biotin-GSGS-15-mer), HSC70 titrated in buffer G pH 7.5 + 1 mM ATP, 45 min, room temperature, n ≥ 6, read-out: Kd from binding curves, HSC70",58 nM
same,HSC70 concentration at which binding reached saturation,"[6]; Fig. 2a, n ≥ 6",around 1 μM
same,effect on luciferase refolding (in words),[7],blocked refolding entirely
"HRIEAMLEC [Peptide 1406-S, NBD2 9-mer]",HSC70 binding site by competition screen (in words),[2],HSC70 site
"ILCEHRIEA [Peptide 1402-S, NBD2 9-mer]",HSC70 binding site by competition screen (in words),[2],HSC70 site
LRWFQMRIE [Peptide 1100-S],competition of DJA2 binding to immobilized 1097-L (in words),[3],competed
"QAFADCTVI [Peptide 1394-S, NBD2 9-mer]",HSC70 binding site by competition screen (in words),[2],"bound by HSC70, DJA2 and DJA1"
same,DJA2 binding site by competition screen (in words),[3],"bound by HSC70, DJA2 and DJA1"
same,DJA1 binding site by competition screen (in words),[5],"bound by HSC70, DJA2 and DJA1"
"SCVCKLMAN [Peptide 593-S, NBD1 9-mer]",DJA1 binding site by competition screen (in words),[5],DJA1 site
SKLFFSWTR [Peptide 17-S],competition of HSC70 binding to immobilized 1097-L (in words),[2],competed HSC70 well
same,effect on luciferase refolding (in words),[7],partial but still significant
